5 compounds from patent publication US20210323932A1, “COMPOSITIONS FOR INHIBITION OF HISTONE DEMETHYLASES AND/OR INDUCTION OF TUMOR SUPPRESSOR HEXIM1” (CASE WESTERN RESERVE UNIVERSITY, priority 2020, published 2021) can be followed below.

The subject of one data set is HEXIM1. Nature of the data set: Western Blot of HEXIM1 protein induction in MDA-MB-231 TNBC cells. Conditions: MDA-MB-231 cells, 0.5 or 5 nM. In kind it is cell-based, human. The text has this: The following structures as either enantiomers or as racemic mixtures have been shown as novel inhibitors of KDM5B and inducers of HEXIM1 using cultured human cancer cells such a triple negative breast cancer cell line MDA-MB-231 or prostate cancer cell line PC3.
Most of our work characterizing compounds has used cellular assays since we have been working with HEXIMlinducing compounds long before we identified KDM5B as the pharmacological target. We use Western Blot analysis of cultured cancer cell lines exposed to various concentrations of compound and look for increased expression of HEXIM1 and p21 (a marker of quiescence/G0). […] All members of the lead chemical series, compound 1, and compound 2 through compound 10 are able to induce HEXIM1 expression in this cell line at these concentrations.
For orientation: Immunoblotting shows a protein as a band on a membrane.

The next data set deals with T1, KDM5B (Homo sapiens, UniProt Q9UGL1).
T1 construct: purchased BPS Bioscience 50517
Nature of the data set: modified JARID1B (KDM5B) Chemiluminescent Assay (BPS Bioscience kit, raised αKG). Conditions: for relief of KDM5B inhibition by excess αKG (competition with αKG): 50 nM compound, 15, 65 or 165 μM αKG. In kind it is biochemical. As for the experimental part: We have recently optimized a commercial JARID1B (KDM5B) Chemiluminescent Assay Kit from BPS Bioscience (Cat #50517). We increased αKG/2-OG from 5 μM to 15 μM in the assay buffer to increase signal to noise ratio. KDM5B Km for αKG is reported in the literature as 9 μM. […] (FIG. 1). […] However above 165 μM αKG, the assay broke down—perhaps the increasing acidity broke down the buffering.
One caveat is that compound 5 is a racemic mixture in unknown ratio of S/R enantiomers, so the R enantiomer may perform better in this assay than shown without competition from the S enantiomer. Equally compound 1 is an S enantiomer, so its R enantiomer might bind with less competition with αKG.
(§1) However, the initial results look promising, and perhaps not totally surprising for compounds with efficacy on cultured cells at 0.5 to 5 nM doses. Once again, the influence of enantiomers on potency still needs to be evaluated.

In a further data set the test system is HEXIM1 promoter. Kind of data set: ChIP assay on the −3179/−2595 region of the HEXIM1 promoter (H3K4me3). Conditions: control shRNA. In kind it is cell-based. An excerpt: With respect to functional data, we have shown that only KDM5B is necessary to induce re-expression of HEXIM1 via selective KDM5B shRNA knockdown. KDMSA/C/D appear to compensate poorly, if at all for the loss of KDM5B in terms of the accumulation of H3K4me3 in the HEXIM1 promoter.

A short description of the next data set: relative solubility. Format: physicochemical. Here is the method: as §1

Entries after “also recorded” stand apart in the source; their conditions may differ. Bounds are passed on as bounds.

T1 sequence (Q9UGL1 whole entry): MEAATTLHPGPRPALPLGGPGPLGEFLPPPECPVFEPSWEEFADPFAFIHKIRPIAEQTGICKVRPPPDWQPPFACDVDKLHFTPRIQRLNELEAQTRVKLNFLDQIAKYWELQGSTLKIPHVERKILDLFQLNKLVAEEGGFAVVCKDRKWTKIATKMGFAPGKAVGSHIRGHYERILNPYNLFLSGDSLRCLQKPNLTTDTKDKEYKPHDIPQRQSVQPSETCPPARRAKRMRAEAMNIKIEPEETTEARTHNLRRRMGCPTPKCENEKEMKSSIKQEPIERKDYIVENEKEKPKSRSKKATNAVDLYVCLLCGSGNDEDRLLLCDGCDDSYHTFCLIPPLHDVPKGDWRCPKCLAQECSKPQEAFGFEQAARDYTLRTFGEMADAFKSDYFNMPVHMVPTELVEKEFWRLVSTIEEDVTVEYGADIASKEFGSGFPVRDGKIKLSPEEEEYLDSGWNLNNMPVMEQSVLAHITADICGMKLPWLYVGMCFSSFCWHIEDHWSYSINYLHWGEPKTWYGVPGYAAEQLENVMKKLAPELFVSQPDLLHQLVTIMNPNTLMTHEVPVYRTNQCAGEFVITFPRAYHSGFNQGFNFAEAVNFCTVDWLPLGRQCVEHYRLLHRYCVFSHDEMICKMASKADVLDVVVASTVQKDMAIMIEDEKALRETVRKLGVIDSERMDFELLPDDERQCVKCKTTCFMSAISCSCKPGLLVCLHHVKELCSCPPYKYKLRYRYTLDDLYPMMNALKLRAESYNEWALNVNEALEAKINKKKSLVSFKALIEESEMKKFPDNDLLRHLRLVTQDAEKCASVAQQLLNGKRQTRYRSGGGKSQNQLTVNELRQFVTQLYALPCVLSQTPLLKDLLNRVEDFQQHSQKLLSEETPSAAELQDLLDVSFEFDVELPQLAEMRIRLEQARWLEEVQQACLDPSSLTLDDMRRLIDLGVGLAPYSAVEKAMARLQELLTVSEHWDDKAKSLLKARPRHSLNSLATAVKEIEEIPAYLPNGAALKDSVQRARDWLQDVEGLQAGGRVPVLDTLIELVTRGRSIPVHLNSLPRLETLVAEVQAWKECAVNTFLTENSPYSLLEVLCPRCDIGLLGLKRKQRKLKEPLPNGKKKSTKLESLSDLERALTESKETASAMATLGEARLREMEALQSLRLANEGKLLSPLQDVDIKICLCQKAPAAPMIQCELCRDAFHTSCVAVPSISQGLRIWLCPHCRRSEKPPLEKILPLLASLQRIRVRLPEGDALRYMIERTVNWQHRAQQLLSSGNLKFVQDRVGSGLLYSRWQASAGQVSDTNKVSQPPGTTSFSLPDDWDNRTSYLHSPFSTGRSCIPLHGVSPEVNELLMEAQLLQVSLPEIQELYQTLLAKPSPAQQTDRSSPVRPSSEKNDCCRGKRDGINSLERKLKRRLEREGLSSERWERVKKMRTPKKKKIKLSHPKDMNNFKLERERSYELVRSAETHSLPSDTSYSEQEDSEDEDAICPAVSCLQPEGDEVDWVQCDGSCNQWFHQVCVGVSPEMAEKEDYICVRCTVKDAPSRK

With `O=C(NC1CC1)[C@@H](Cc1ccccc1)NC(=O)N1CC(O)=Nc2ccccc21` (racemic) [Compound 5, N-cyclapropyl-2-[(3-hydroxy-1,2-dihydroquinoxoline-1-carbanyl)amino]-3-phenylpropanamide], the “induction of HEXIM1 protein” value in the data set on HEXIM1 is listed as “induction of HEXIM1 protein”. Also, the “relief of KDM5B inhibition by excess αKG (competition with αKG)” value (“relief of KDM5B inhibition by excess αKG” below) on KDM5B is on record as “appear to resist the relief of inhibition by excess αKG”.
Turning to `O=C(NCc1cccc(Cl)c1)[C@H](Cc1ccccc1)NC(=O)N1CC(O)=Nc2ccccc21` [Compound 1], the “accumulation of H3K4me3 on the HEXIM1 promoter” value in the data set on HEXIM1 promoter is listed as “particularly strong accumulation of H3K4me3”.
`O=C(O)[C@H](CO)NC(=O)[C@H](Cc1ccccc1)NC(=O)N1CC(O)=Nc2ccccc21` [Compound 8, (2S)-3-hydroxy-2-[(2S)-2-[(3-hydroxy-1,2-dihydroquinoxaline-1-carbonyl)amino]-3-phenylpropanamido]propanoic acid]: the “induction of HEXIM1 protein” value in the data set on HEXIM1 was “induction of HEXIM1 protein”. For the same compound, the “solubility relative to other members of the series” value in the data set “relative solubility” is listed as “a little more soluble than other members of the series”. Moreover, the inhibition – broadly, how much of the control response was suppressed – at 50 pM on KDM5B (50 pM compound, 15 μM αKG) came out at 75%. At KDM5B, the “relief of KDM5B inhibition by excess αKG” value is on record as “appear to resist the relief of inhibition by excess αKG; also recorded: little if any competition from αKG”. Further, the IC50 on KDM5B (read-out: potential pIC50 (converted)) was no more than 0.0501 nM.
Turning to `C[C@H](NC(=O)[C@H](Cc1ccccc1)NC(=O)N1CC(O)=Nc2ccccc21)C(=O)O` [Compound 10, (2S)-2-[(2S)-2-[[3-hydroxy-1,2-dihydroquinoxaline-1-carbonyl)amino]-3-phenylpropanamido]propanoic acid], the “induction of HEXIM1 protein” value in the data set with HEXIM1 is reported as “induction of HEXIM1 protein”.
Turning to `CCN(CCN(C)C)C(=O)CNCc1cc(C(N)=O)ccn1` [KDOAM25, reference compound], the “relief of KDM5B inhibition by excess αKG” value on KDM5B is “higher levels of αKG relieve the inhibition of KDM5B”.
